Assay results published in a melting point compilation (Tetko et al.; mined from patent text by program, amines drawn as free bases though some values may be those of a salt).

SMILES | melting point [°C]
CN1Cc2c(C(=O)OCC3CC3)ncn2-c2cccc(Cl)c2C1=O | 194 to 195
CCCCc1nc(=O)n2nc(-c3ccccc3)cc2[nH]1 | 234
O=C1CNCCN1c1ccc([N+](=O)[O-])cc1 | 150 to 153
COc1ccc(S(=O)(=O)N2CSC(C)(C)[C@@H]2C(=O)NO)cc1 | 68 to 71
O=C(NCC12CC3CC(CC(C3)C1)C2)c1cccc([N+](=O)[O-])c1Cl | 185
O[C@@H]([C@H](O)[C@@H](COc1ccccc1)OCc1ccccc1)[C@@H](COc1ccccc1)OCc1ccccc1 | 80
C#CCOc1cc2c(cc1OC)C(=C(C#N)C(=O)OCC)CC2(C)C | 132 to 136
O=C(Cc1cccs1)NCCCSc1ccncc1 | 62 to 63
Nc1nc2ccccc2c(=O)[nH]1 | > 300
CC(=NO)c1ccc2c(c1)oc1ccccc12 | 132 to 135
CCCCCS(=O)(=O)NC(=O)/C=C/c1ccc(OCCOC)cc1Oc1ncc(Cl)cc1Cl | 119 to 120
COC(=O)c1ccc2c(c1)SCCCC2NC(=O)OCc1ccccc1 (configuration not stated) | 132 to 134
CC(=O)c1nc2c(OCc3ccccc3)cccc2n1C | 102 to 104
CN1C(=O)C(=Cc2cc(C(C)(C)C)c(O)c(C(C)(C)C)c2)SC1O (configuration not stated) | 165 to 170
O=[N+]([O-])c1cccc2c1COCO2 | 76 to 77
O=C(N[C@H]1CCN(C(=O)c2cc(C(F)(F)F)cc(C(F)(F)F)c2)[C@H](Cc2ccc(Cl)cc2)C1)c1cc(=O)c2ccc(Cl)cc2o1 | 218 to 220
CCN(CC)c1nsc(N)c1C#N | 87 to 88
NS(=O)(=O)c1cccc2cc[nH]c12 | 125 to 127
O=C1c2ccccc2C(=O)N1CCCn1c2ccccc2c2nc3ccccc3nc21 | 212 to 214
O=C(O)CCCC1(c2ccc(F)cc2)OCCO1 | 65 to 67
O=C(O)c1c(Cc2cc3c(cc2Cl)OCO3)c(-c2ccsc2)nn1CC1CCCCC1 | 250
CNc1cc(C(F)(F)F)cc(N(CCN(C)C)C(=O)N(C)C)n1 | 101 to 103
CC1(C)CC(O)CC(C)(C)N1OC1CCCCC1 | 74 to 78
Cc1oc(-c2ccccc2)nc1COc1ccc(COc2nn(Cc3ccccc3)cc2CC(=O)O)cc1 | 91 to 92
Oc1c(Br)cc(-c2c3ccccc3c(Br)c3oc4ccccc4c23)c(O)c1Br | 226 to 228
NCC1(CC(=O)O)CCCCCC1 | 180

SMILES | melting point [°C]
CC(C)(C)c1cc(-c2cn3ccsc3n2)cc(C(C)(C)C)c1O | 184 to 185
Cc1ccc([N+](=O)[O-])c2c1CC(C)O2 (configuration not stated) | 69 to 71
CC(=O)NCc1cc([N+](=O)[O-])ccc1C | 133 to 138
CCCCc1nc(C#N)c(C#N)n1Cc1ccc(N)cc1 | 99 to 104
O=C1C(=O)c2ccccc2C2=C1SCC1(CCN(c3cnccn3)CC1)O2 | 255 to 256
Cc1cc(O)n2nc(CC(=O)O)nc2n1 | 266 to 270
COC(=O)Cc1cc(Br)c(Sc2ccc(OC)c(C(C)C)c2)c(Br)c1 | 73 to 76
O=C1NCC[C@H](c2ccc(C(F)(F)F)cc2)[C@@H]1c1ccccc1 (relative stereo) | 155 to 156
COC(=O)c1ccc(=O)n(CCNC(=O)c2cc(Cl)ccc2OC)c1 | 149 to 150
CCCO[C@@H](C)C(=O)Oc1ccc(-c2ccc(C(=O)O)cc2)cc1 | 155
O=C(NCCC1CC1)c1ccnc(N2CCN(Cc3ccc(F)cc3)C2=O)c1 | 123 to 125
O=C(OCc1snc(Cl)c1Cl)c1ccccc1 | 79 to 80
NC(=O)Cn1ccc(-c2ccc(Oc3ccc(F)cc3)cc2)n1 | 145
Cc1nc2c(s1)-c1nc(Nc3ccc(N(C)C)cc3)ncc1CC2 | 176 to 177
CCOc1cc2ncc(C#N)c(Nc3cccc(C(C)=O)c3)c2cc1OCC | 191 to 194
CCOC(=O)C(C)Oc1ncn(-c2ccc(Br)cc2)n1 (configuration not stated) | 64 to 66
COC(=O)CN1C(=S)CN=C(c2ccccc2Cl)c2ccccc21 | 183 to 184
CCOP(=O)(OCC)C(CCC(C(N)=O)P(=O)(OCC)OCC)C(N)=O (configuration not stated) | 232 to 234
CCOc1ccc(C(c2ccc(C(C)CC)cc2)C(CC)[N+](=O)[O-])cc1 (configuration not stated) | 89 to 90
COC(=O)ON(C(N)=O)C(C)c1cc2ccccc2s1 (configuration not stated) | 124 to 125
CCN(CC)C(=O)c1ccc2ccccc2c1-c1ccccc1 | 121 to 122
CN1CCN(C2=Nc3cc(C(F)(F)F)ccc3N3CCc4cccc2c43)CC1 | 177 to 180
COc1cc(-c2nc(C)cs2)cc(OC)c1OC | 105 to 106
COc1ccc(C=CC(=O)c2c(OC)cc(OC)cc2OC(=O)c2ccco2)cc1 | 127
COc1cc2c(c(Cl)c1Cl)S(=O)(=O)C(c1ccccc1)=C2C | 197 to 199
CCOC(=O)c1ccc2c(c1)C(=O)N(C1CC(C)(C)N(C(C)=O)C(C)(C)C1)C2=O | 119 to 121

SMILES | melting point [°C]
COC(=O)C(c1ccc(Cl)cc1)c1c(Cl)cc(-n2ncc(=O)[nH]c2=O)cc1Cl (configuration not stated) | 121
Cc1c(C(=O)O)ccc2c1C(O)CCS2(=O)=O (configuration not stated) | 172 to 173
Cc1ccc(NCc2ccc(C(=O)Nc3ccccc3N)cc2)cc1Nc1nccc(-c2cccnc2)n1 | 112 to 120
CCc1nn(C(C)CCCc2ccccc2)c2nc(Cc3ccc(-c4cccc(N)c4)cc3)[nH]c(=O)c12 (configuration not stated) | 108
O=C(O)C(O)C1CCN(Cc2ccccc2)C1 (configuration not stated) | 174 to 176
COC(=O)c1cc2ccccc2c(-c2ccnc(Cl)c2)c1C(=O)OC | 174 to 178
CCCCNc1c(CO)cnc2c1cnn2CC | 60 to 72
CCCCCCCCCC(=O)c1ccc(OCc2ccc(C=C3SC(=S)NC3=O)cc2)c(CCC)c1O | 188
CSC(C#N)c1cccc(C(=O)c2ccc(Cl)cc2)c1N (configuration not stated) | 122
CNC(=O)NCCn1c(-c2ccc(CN3CCOCC3)c(C)c2)csc1=Nc1ccc(F)c(C)c1 | 139 to 140
C[C@]1(COc2ccc(N3CCC(Cc4cccc(OC(F)(F)F)c4)CC3)cc2)Cn2cc([N+](=O)[O-])nc2O1 | 187 to 190
NC(=NO)c1ccncc1 | 203 to 205
O=C1c2ccccc2S(=O)(=O)N1CCCCOc1ccc(OCc2ccccc2)cc1 | 82 to 84
CCc1ccc(NC2=CC3=NCN(C)C3=CC2(F)C(N)=O)c(F)c1 (configuration not stated) | 249 to 251
Nc1nccc2occc12 | 122 to 124
N#Cc1ccc(CN2CC=C(/C=C/c3ccc(F)cc3)CC2)cc1 | 150 to 152
C=CCOc1ccc2oc(C(=O)OCC)cc2c1 | 34 to 36
NS(=O)(=O)N1CCC(C2c3ncc(Br)cc3CCc3cc(Cl)cc(Cl)c32)CC1 (single isomer, unassigned; (+)) | 133 to 134
c1ccc(COC[C@H](CP(c2ccccc2)c2ccccc2)P(c2ccccc2)c2ccccc2)cc1 | 88
CC(C)(CO)Oc1ccc(CNc2ccc(Cl)cc2)cc1 | 84 to 91
CC1(C)C(=O)Nc2cc(C(=O)Nc3cccc(N)c3)ccc21 | 244 to 245
COc1cc2cc(C=Cc3ccccc3Cl)[nH]c2cc1OCc1ccccc1 | 192 to 194
CC/C=C/CONC(=O)c1nc(-c2ccc(Cl)c(OC)c2F)cc(N)c1Cl | 145 to 147
O=C(Oc1ccccc1)N1CCC(S(=O)(=O)c2ccccc2F)CC1 | 160 to 161
COc1ccc(C(=O)[C@H]2CC=CC[C@H]2C(=O)O)cc1F (relative stereo) | 185 to 187
CCc1cc2c(s1)N(C(=O)NCCN(C)C)CCN=C2c1ccccc1Cl | 160 to 162

SMILES | melting point [°C]
COc1ccc2c(c1)Nc1cccc(S(=O)(=O)N(C)C)c1S2 | 196 to 198
CCCOc1ccccc1-c1nc2nc(NCC(=O)OCC)ncc2c(=O)[nH]1 | 174 to 176
CSCS[C@H](C)[C@](O)(Cn1cncn1)c1ccc(F)cc1F | 108 to 109
CC(C)(C)NS(=O)(=O)c1csc2ccccc12 | 146 to 148
O=C1C(Cl)=C(c2ccccc2)C(=O)N1c1cccc(Cl)c1 | 67 to 68
Cc1cccc(-c2nc(NC3CCCCC3)c3ccccc3n2)n1 | 253 to 255
CC(C)(O)c1nnc2ccc(-c3c(-c4ccc(F)cc4F)nc4occn34)nn12 | 258 to 260
N#Cc1cc2n(c1)CCc1ccccc1C2=O | 146 to 147
CCOC(=O)Cn1cnc2c(N3CCOCC3)nc(NC(=O)C3CCCCC3)nc21 | 142 to 147
COC(=O)CN(C)C(=O)c1c2ccc(Cl)ccc-2[nH]c1=O | 170 to 172
c1ccc(-c2cc(-c3ccc4c(c3)OCO4)cc(OCCCCCc3nnn[nH]3)n2)cc1 | 150
O=C(CCC(=O)N1CCC[C@H]1C(=O)O)c1ccc(F)cc1 | 127 to 129
CCCCC(O)c1c(C(C)C)nc(C(C)C)c(CO)c1-c1ccc(F)cc1 (configuration not stated) | 166 to 168
CNC1CCN(C(=O)CC2=C(n3nc(-c4c(-c5ccccc5)nn5ccccc45)ccc3=O)CCCC2)CC1 | 101 to 105
CCCOCCOc1ccc(OCC(O)CNCCNc2cc(=O)n(C)c(=O)n2C)cc1 (configuration not stated) | 125
CC(=O)Nc1nc(NCCSC(C)=O)n[nH]1 | 127 to 130
Nc1nn2ccccc2c1N | 190
CSc1c2ccccc2c(C=O)c2ccccc12 | 98.5 to 99
Cc1cc2c(cc1CN1CCN(C)CC1)-c1[nH]nc(-c3ccsc3)c1C2 | 210 to 212
O=C(Oc1cc(OC(=O)c2ccc(O)c(O)c2)c2ccccc2c1)c1ccc(O)c(O)c1 | 79 to 81
NC(=S)Nc1ccccc1-c1ccccc1 | 183 to 184
C#Cc1c(N)cc(-c2ccc(Cl)c(OC)c2F)nc1C(=O)OC | 167 to 169
Cc1cc(-c2cc(C(F)F)n3ncc(C(=O)Nc4cccc(S(=O)(=O)N5CCOCC5)c4)c3n2)ccc1C(F)(F)F | 261
N=C(N)NCCc1ccc(OCCCC(c2ccccc2)(c2ccccc2)c2ccccc2)cc1 | 169 to 170
